Test results from ChEMBL document CHEMBL1201862, “PubChem BioAssay data set” (2004).
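Five compound concentrations were applied to cells in 96-well plates for 48 hours; endpoints were derived by simple linear interpolation of the resulting dose-response curve. Abbreviation: GI50, concentration required for 50% inhibition of growth.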 Activity calls are given as the source filed them. Rule as the data show it: active = GI50 up to about 1.1 µM and inactive = higher.

How the values were obtained:
Test in all cases: NCI tumour cell line growth inhibition, 48 h
A498 = system: A498
A549 = system: A549
BT-549 = system: BT-549
CCRF-CEM = system: CCRF-CEM
COLO 205 = system: COLO 205
EKVX = system: EKVX
HL-60 = system: HL-60
HT-29 = system: HT-29
K562 = system: K562
KM12 = system: KM12
MCF7 = system: MCF7
MOLT-4 = system: MOLT-4
NCI-H460 = system: NCI-H460
RPMI-8226 = system: RPMI-8226
SK-OV-3 = system: SK-OV-3
SN12C = system: SN12C
SR = system: SR
U-251 = system: U-251
SNB-75 = system: SNB-75

Compound | GI50 (A498) | GI50 (A549) | GI50 (BT-549) | GI50 (CCRF-CEM) | GI50 (COLO 205) | GI50 (EKVX) | GI50 (HL-60) | GI50 (HT-29) | GI50 (K562) | GI50 (KM12) | GI50 (MCF7) | GI50 (MOLT-4) | GI50 (NCI-H460) | GI50 (RPMI-8226) | GI50 (SK-OV-3) | GI50 (SN12C) | GI50 (SR) | GI50 (U-251) | GI50 (SNB-75)
Fc1ccc(C(OCCN2CCN(CCCCl)CC2)c2ccc(F)cc2)cc1 | 20.9 µM (inactive) | 35.5 µM (inactive) | 18.6 µM (inactive) | 40.2 µM (inactive) | 16.3 µM (inactive) | 41.1 µM (inactive) | 0.391 µM (active) | 17 µM (inactive) | 15.3 µM (inactive) | 18.3 µM (inactive) | 21.6 µM (inactive) | 19.9 µM (inactive) | 21.8 µM (inactive) | 20.8 µM (inactive) | 48.6 µM (inactive) | 25.3 µM (inactive) | 18.8 µM (inactive) | 41 µM (inactive) | 
Nc1nccc(NCC2(CO)CC(CCc3ccccc3)C2)n1 (stereo not given) | 13.2 µM (inactive) | 13 µM (inactive) | 21.3 µM (inactive) | 15.1 µM (inactive) | 13.2 µM (inactive) | 12.6 µM (inactive) | 6.18 µM (inactive) | 11 µM (inactive) | 4.74 µM (inactive) | 17 µM (inactive) | 10 µM (inactive) | 7.98 µM (inactive) | 12.3 µM (inactive) | 10.8 µM (inactive) |  | 19.4 µM (inactive) | 8.71 µM (inactive) | 13.7 µM (inactive) | 19.9 µM (inactive)
Nc1nc(-c2ccccc2/N=N/N2CCCC2)nc2ccccc12 | 7.76 µM (inactive) | 2.62 µM (inactive) | 11.8 µM (inactive) | 3.07 µM (inactive) | 2.56 µM (inactive) | 10.8 µM (inactive) |  | 2.38 µM (inactive) | 3.05 µM (inactive) | 2.13 µM (inactive) | 3.48 µM (inactive) | 1.16 µM (inactive) | 2.92 µM (inactive) | 2 µM (inactive) | 9.1 µM (inactive) | 1.59 µM (inactive) | 0.413 µM (active) | 2.67 µM (inactive) | 11.5 µM (inactive)
CCCCCCc1cc2cc(C(=O)Nc3ccccc3F)c(=N)oc2cc1O | 14.4 µM (inactive) | 6.97 µM (inactive) | 5.36 µM (inactive) | 4.76 µM (inactive) | 19.3 µM (inactive) | 10.4 µM (inactive) | 6.24 µM (inactive) | 24.7 µM (inactive) | 3.7 µM (inactive) | 4.01 µM (inactive) | 3.85 µM (inactive) | 3.21 µM (inactive) | 7.62 µM (inactive) | 3.66 µM (inactive) | 12.5 µM (inactive) |  | 2.83 µM (inactive) | 4.81 µM (inactive) | 
O=C1CCCC1CC(CN1CCOCC1)Sc1nnnn1-c1ccccc1 (stereo not given) | > 100 µM (inactive) | > 100 µM (inactive) | > 100 µM (inactive) | > 100 µM (inactive) | 16.6 µM (inactive) | 28.9 µM (inactive) | 16.7 µM (inactive) | 31 µM (inactive) | > 100 µM (inactive) | > 100 µM (inactive) | 18.2 µM (inactive) | > 100 µM (inactive) |  | 42.1 µM (inactive) | > 100 µM (inactive) | > 100 µM (inactive) | > 100 µM (inactive) | > 100 µM (inactive) | 21.3 µM (inactive)
C=C[C@]1(O[Si](C)(C)C)C[C@@]2(C(=O)OCC)C(O)C(=O)N3CCc4cc(OC)c(OC)cc4[C@]312 (stereo not given in full) | 40.9 µM (inactive) | > 100 µM (inactive) | > 100 µM (inactive) | > 100 µM (inactive) | > 100 µM (inactive) | > 100 µM (inactive) |  | > 100 µM (inactive) | > 100 µM (inactive) | > 100 µM (inactive) | 90.8 µM (inactive) | > 100 µM (inactive) | > 100 µM (inactive) | 61.1 µM (inactive) | > 100 µM (inactive) | > 100 µM (inactive) | > 100 µM (inactive) | > 100 µM (inactive) | > 100 µM (inactive)
O=C(O)CSCC(=O)c1ccccc1 | > 100 µM (inactive) | > 100 µM (inactive) | > 100 µM (inactive) |  | > 100 µM (inactive) | > 100 µM (inactive) | > 100 µM (inactive) | > 100 µM (inactive) | > 100 µM (inactive) | > 100 µM (inactive) | > 100 µM (inactive) | > 100 µM (inactive) | > 100 µM (inactive) | > 100 µM (inactive) | > 100 µM (inactive) | > 100 µM (inactive) | > 100 µM (inactive) | > 100 µM (inactive) | > 100 µM (inactive)
